From US20250195511A1, “INDAZOLE DERIVATIVES USEFUL AS INHIBITORS OF NOD-LIKE RECEPTOR PROTEIN 3” (Merck Sharp & Dohme LLC, priority 2023, published 2025) come the findings set out here.

For the test, the system named is NLRP3 inflammasome. The test is described as follows: NLRP3 inflammasome activation: ASC-SPECK formation in gramicidin-stimulated THP-1 cells. The test is classed as cell-based. The following applies: PMA-treated human monocytic THP-1 cells, compound 1 h before 12.5 μg/ml gramicidin, 3-hour treatment. The text has this: Activation of the canonical NLRP3 inflammasome requires two steps, priming and activation. A priming signal such as a pathogen activated molecular patterns (PAMPs) or danger-activated molecular patterns (DAMPs) are recognized by Toll-like receptors leads to nuclear factor kappa B (NF-KB)-mediated signaling. […] The second step is activation which induces oligomerization of NLRP3 and subsequent assembly of NLRP3, apoptosis-associated speck-like protein containing a CARD (ASC), and procaspase-1 into an inflammasome complex. This triggers the transformation of procaspase-1 to caspase-1, and the production and secretion of mature IL-1β and IL-18 (Kim et al., J. Inflamm. 2015, 12, 41; Ozaki et al., J. Inflamm. Res. 2015, 8, 15-27; Rabeony et al., Eur. J. Immunol. 2015, 45, 2847). During inflammasome complex assembly, the oligomerization of NLRP3 triggers the nucleation of ASC and an event commonly referred to as “ASC SPECK” formation, as it is identified in the cell as a discrete puncta within the cell after staining and visualization of ASC using common immunocytochemical methods.
The ability of compounds to inhibit NLRP3 inflammasome activation was determined in vitro by monitoring formation of the ASC-SPECK in human monocytic THP-1 cells after stimulation. THP-1 cells (ATCC catalog #TIB-202) were maintained in complete growth media containing Roswell Park Memorial Institute RPMI (ATCC catalog #30-2001), 10% heat inactivated fetal bovine serum, 1× penicillin/streptomycin and 0.05 mM 2-mercaptoethanol. At the start of the assay, undifferentiated THP-1 cells were plated at a density of 20,000 cells per well in a 384-well plate (Poly-D-lysine coated Cell Carrier Ultra microplate, Perkin Elmer catalog #6057500) in complete growth media supplemented with 10 ng/ml phorbol 12-myristate 13-acetate (PMA; Sigma catalog #P8139), and then incubated overnight. The next day, media was replaced with assay media (RPMI (Gibco catalog #11875-093), 0.01% bovine serum albumin (BSA)). Compounds were serially diluted in DMSO and then added to wells one hour prior to the addition of 12.5 μg/ml Gramicidin (Enzo Lifescience, catalog #ALX-350-233-M005). All incubations were carried out at 37° C. (5% CO2/95% air). Following a 3-hour treatment with gramicidin, cells are fixed with 4% paraformaldehyde and stored at 4° C. until immunofluorescence staining.
Immunofluorescence staining: Anti-ASC antibody (MBL catalog #D086-3) was desalted and labeled with Alexa 488 antibody labeling kit (Thermo catalog #A20181) prior to use as described below. After fixation, the following steps were carried out at rt. Cells were first permeabilized with 0.3% polyethylene glycol tert-octylphenyl ether (Triton X-100) in phosphate-buffered saline (PBS) for 15 minutes and then incubated in blocking buffer containing 5% goat serum, 0.3% polyethylene glycol sorbitan monolaurate (Tween-20) and 0.03% sodium azide in PBS for 1 hour. Cells were stained with a mixture of ASC-Alexa 488 antibody (diluted 1:200 in blocking buffer) and nuclear stain DRAQ5 (1:5000 in blocking buffer, Thermo catalog #62251) in blocking buffer for 1 hour. Following a wash with 0.3% polyethylene glycol sorbitan monolaurate (Tween-20) in PBS, plates were imaged with an Opera Phenix High Content Screening System. The number of DRAQ5 positive cells containing ASC SPECKS were quantified in each well.
Data analysis: EC50 values were calculated by standard curve-fitting analysis using an internally developed program in TIBCO Spotfire software.

The mark [1] stands for this setting: inhibition of ASC SPECK formation.
Setting [2] is: Homo sapiens, THP-1, inhibition of ASC SPECK formation.

As to `Cc1cc(C(F)(F)F)cc(O)c1-c1cnc2cn(C34CC3COC4(C)C)nc2n1` (single isomer, unassigned) [Example 76, 2-(2-((1R,5R or 1S,5S)-2,2-dimethyl-3-oxabicyclo[3.1.0]hexan-1-yl)-2H-pyrazolo[3,4-b]pyrazin-6-yl)-3-methyl-5-(trifluoromethyl)phenol], under setting [1], the EC50 (usually the midpoint of the concentration-response curve) worked out at 99 nM. On the same count and under the same terms, to `Cc1cc(C(F)(F)F)cc(O)c1-c1cnc2cn(C34CC3COC4(C)C)nc2n1` (single isomer, unassigned) [Example 77, 2-(2-((1S,5S or 1R,5R)-2,2-dimethyl-3-oxabicyclo[3.1.0]hexan-1-yl)-2H-pyrazolo[3,4-b]pyrazin-6-yl)-3-methyl-5-(trifluoromethyl)phenol] belongs 445 nM. In the case of `Cc1cc(C(F)(F)F)cc(O)c1-c1cnc2cn(C3(C)CCOC3)nc2n1` (single isomer, unassigned) [Example 78, (S or R)-3-methyl-2-(2-(3-methyltetrahydrofuran-3-yl)-2H-pyrazolo[3,4-b]pyrazin-6-yl)-5-(trifluoromethyl)phenol], the EC50 under setting [2] amounted to 198 nM.

As to `Cc1cc(C(F)(F)F)cc(O)c1-c1cnc2cn(C3(C)CCOC3)nc2n1` (single isomer, unassigned) [Example 79, (R or S)-3-methyl-2-(2-(3-methyltetrahydrofuran-3-yl)-2H-pyrazolo[3,4-b]pyrazin-6-yl)-5-(trifluoromethyl)phenol], the EC50 under setting [1] amounted to 173 nM. In the case of `Cc1cc(C(F)(F)F)cc(O)c1-c1cnc2cn(CC3CC(=O)N(C(C)C)C3)nc2n1` (single isomer, unassigned) [Example 80, (R or S)-4-((6-(2-hydroxy-6-methyl-4-(trifluoromethyl)phenyl)-2H-pyrazolo[3,4-b]pyrazin-2-yl)methyl)-1-isopropylpyrrolidin-2-one], the EC50 under setting [1] came to 8 nM. Same read-out and setting: to `Cc1cc(C(F)(F)F)cc(O)c1-c1cnc2cn(CC3CC(=O)N(C(C)C)C3)nc2n1` (single isomer, unassigned) [Example 81, (S or R)-4-((6-(2-hydroxy-6-methyl-4-(trifluoromethyl)phenyl)-2H-pyrazolo[3,4-b]pyrazin-2-yl)methyl)-1-isopropylpyrrolidin-2-one] belongs 437 nM. For `Cc1cc(C(F)(F)F)cc(O)c1-c1cnc2cn(C3CCP(C)(=O)CC3)nc2n1` (single isomer, unassigned) [Example 82, (1R,4R or 1S,4S)-4-(6-(2-hydroxy-6-methyl-4-(trifluoromethyl)phenyl)-2H-pyrazolo[3,4-b]pyrazin-2-yl)-1-methylphosphinane 1-oxide], the EC50 under setting [2] was determined as 189 nM.

As for `Cc1cc(C(F)(F)F)cc(O)c1-c1cnc2cn(C34COCC3C4)nc2n1` (single isomer, unassigned) [Example 83, 2-(2-((1R,5R or 1S,5S)-3-oxabicyclo[3.1.0]hexan-1-yl)-2H-pyrazolo[3,4-b]pyrazin-6-yl)-3-methyl-5-(trifluoromethyl)phenol], under setting [1], the EC50 was 11 nM. On the same count and under the same terms, to `Cc1cc(C(F)(F)F)cc(O)c1-c1cnc2cn(C34COCC3C4)nc2n1` (single isomer, unassigned) [Example 84, 2-(2-((1S,5S or 1R,5R)-3-oxabicyclo[3.1.0]hexan-1-yl)-2H-pyrazolo[3,4-b]pyrazin-6-yl)-3-methyl-5-(trifluoromethyl)phenol] belongs 60 nM; to `Cc1cc(C(F)(F)F)cc(O)c1-c1cnc2cn([C@@H]3CCOC[C@@H]3C)nc2n1` (single isomer, unassigned) [Example 85, 3-methyl-2-(2-((3R,4R or 3S,4S)-3-methyltetrahydro-2H-pyran-4-yl)-2H-pyrazolo[3,4-b]pyrazin-6-yl)-5-(trifluoromethyl)phenol], 42 nM.

As for `Cc1cc(C(F)(F)F)cc(O)c1-c1cnc2cn([C@@H]3CCOC[C@@H]3C)nc2n1` (single isomer, unassigned) [Example 86, 3-methyl-2-(2-((3S,4S or 3R,4R)-3-methyltetrahydro-2H-pyran-4-yl)-2H-pyrazolo[3,4-b]pyrazin-6-yl)-5-(trifluoromethyl)phenol], the EC50 under setting [1] stood at 326 nM. In the case of `Cc1cc(C(F)(F)F)cc(O)c1-c1cnc2cn([C@H]3CCOC[C@@H]3C)nc2n1` (single isomer, unassigned) [Example 87, 3-methyl-2-(2-((3R,4S or 3S,4R)-3-methyltetrahydro-2H-pyran-4-yl)-2H-pyrazolo[3,4-b]pyrazin-6-yl)-5-(trifluoromethyl)phenol], the EC50 under setting [2] stood at 564 nM. On to `Cc1cc(C(F)(F)F)cc(O)c1-c1cnc2cn([C@H]3CCOC[C@@H]3C)nc2n1` (single isomer, unassigned) [Example 88, 3-methyl-2-(2-((3S,4R or 3R,4S)-3-methyltetrahydro-2H-pyran-4-yl)-2H-pyrazolo[3,4-b]pyrazin-6-yl)-5-(trifluoromethyl)phenol], for which, under setting [1], the EC50 was 291 nM. For `Cc1cc(C(F)(F)F)cc(O)c1-c1cnc2cn([C@H]3CCO[C@H](C)C3)nc2n1` (single isomer, unassigned) [Example 89, 3-methyl-2-(2-((2R,4S or 2S,4R)-2-methyltetrahydro-2H-pyran-4-yl)-2H-pyrazolo[3,4-b]pyrazin-6-yl)-5-(trifluoromethyl)phenol], the EC50 under setting [1] was determined as 292 nM. Same read-out and setting: to `Cc1cc(C(F)(F)F)cc(O)c1-c1cnc2cn([C@H]3CCO[C@H](C)C3)nc2n1` (single isomer, unassigned) [Example 90, 3-methyl-2-(2-((2S,4R or 2R,4S)-2-methyltetrahydro-2H-pyran-4-yl)-2H-pyrazolo[3,4-b]pyrazin-6-yl)-5-(trifluoromethyl)phenol] belongs 101 nM.

In the case of `Cc1cc(C(F)(F)F)cc(O)c1-c1cnc2cn(C34CCOCC3C4)nc2n1` (single isomer, unassigned) [Example 91, 2-(2-((1R,6S or 1S,6R)-3-oxabicyclo[4.1.0]heptan-6-yl)-2H-pyrazolo[3,4-b]pyrazin-6-yl)-3-methyl-5-(trifluoromethyl)phenol], the EC50 under setting [1] was 60 nM.

Regarding `Cc1cc(C(F)(F)F)cc(O)c1-c1cnc2cn(C34CCOCC3C4)nc2n1` (single isomer, unassigned) [Example 92, 2-(2-((1S,6R or 1R,6S)-3-oxabicyclo[4.1.0]heptan-6-yl)-2H-pyrazolo[3,4-b]pyrazin-6-yl)-3-methyl-5-(trifluoromethyl)phenol], under setting [1], the EC50 turned out to be 132 nM. The same measure, in the same setting: the same measure for `Cc1cc(C(F)(F)F)cc(O)c1-c1cnc2cn([C@H]3CCO[C@@H](C)C3)nc2n1` (single isomer, unassigned) [Example 93, 3-methyl-2-(2-((2S,4S or 2R,4R)-2-methyltetrahydro-2H-pyran-4-yl)-2H-pyrazolo[3,4-b]pyrazin-6-yl)-5-(trifluoromethyl)phenol]: 332 nM; for `Cc1cc(C(F)(F)F)cc(O)c1-c1cnc2cn([C@H]3CCO[C@@H](C)C3)nc2n1` (single isomer, unassigned) [Example 94, 3-methyl-2-(2-((2R,4R or 2S,4S)-2-methyltetrahydro-2H-pyran-4-yl)-2H-pyrazolo[3,4-b]pyrazin-6-yl)-5-(trifluoromethyl)phenol]: 92 nM. Still for that read-out and setting: the same measure for `Cc1cc(C(F)(F)F)cc(O)c1-c1cnc2cn(C3CCOC(C)(C)C3)nc2n1` (single isomer, unassigned) [Example 95, (R or S)-2-(2-(2,2-dimethyltetrahydro-2H-pyran-4-yl)-2H-pyrazolo[3,4-b]pyrazin-6-yl)-3-methyl-5-(trifluoromethyl)phenol]: 388 nM.

Turning to `Cc1cc(C(F)(F)F)cc(O)c1-c1cnc2cn(C3CCOC(C)(C)C3)nc2n1` (single isomer, unassigned) [Example 96, (S or R)-2-(2-(2,2-dimethyltetrahydro-2H-pyran-4-yl)-2H-pyrazolo[3,4-b]pyrazin-6-yl)-3-methyl-5-(trifluoromethyl)phenol], the EC50 under setting [2] was determined as 235 nM.
